Measurements published in US12194081B2, “ARGINASE1 polypeptides” (IO BIOTECH APS, priority 2018, dated 2025).

Legend:
[1] = tested on: C57BL/6 mice; test: Peptide vaccination of C57BL/6 mice, IFNγ ELISPOT of spleen and draining lymph node cells; assay type: in vivo, mouse; conditions: 100 μg peptide s.c. with Montanide ISA 51 VG; one vaccination; day 7; spleen and dLNs; FIG. 6
Experimental: Animals were vaccinated subcutaneously with 100 μg peptide in DMSO/H2O in a 1:1 emulsion with incomplete Montanide ISA 51 VG. Montanide ISA 51 VG+DMSO/H2O served as a control vaccine. For subsequent analysis of the immune response to the ArgLong2 peptide, mice were sacrificed on day 7 and spleen and draining lymph nodes (dLNs) were harvested for ELISPOT setup.
Murine immune cells were subjected to ELISPOT analysis. Single cell suspension was prepared from spleen or dLNs by passage through a cell strainer. After lysis of red blood cells, 0.6-0.8×10^6 cells/well were seeded into ELISPOT plates coated with anti-IFNγ antibody. Peptide of interest was added to designated wells and cells were incubated overnight with peptide. The next day, cells were removed, plates washed and incubated with biotinylated detection antibody. Finally, after addition of Streptavidin-ALP and substrate visible spots appear. Each spot corresponds to an individual IFNγ producing cell. Plates were analysed in an Immunospot analyser and plotted.

[2] = tested on: CD4+ and CD8+ memory T cells (CD45RO+); test: ex vivo IFNγ ELISPOT of sorted memory T cells; assay type: cell-based, human
Experimental: (§1) For in vitro ELISPOT, PBMCs from cancer patients and healthy donors were pulsed with 20 μM of Arginase 1-derived peptides and 120 U/ml IL-2 in 24-well plates for 7 days before being used in an ELISPOT assay. The cells were placed in 96-well nitrocellulose ELISPOT plates (MultiScreen MAIP N45; Millipore) pre-coated with IFNγ capture antibody (Mabtech). Arginase peptides added to a final concentration of 5 μM and plates incubated at 37° C. for 14-16 hours. After the incubation the cells were washed off and secondary biotinylated Ab (Mabtech, cat. 3420-6-1000) was added for 2 hours at room temperature. Unbound secondary antibody was washed off and streptavidin conjugated alkaline phosphatase (AP) (Mabtech, cat. 3310-10) was added for 1 hour at room temperature. Unbound conjugated enzyme was washed off and the assay was developed by adding BCIP/NBT substrate (Mabtech, cat. 3650-10). Developed ELISPOT plates were analyzed on CTL ImmunoSpot S6 Ultimate-V analyzer using Immunospot software v5.1. Responses were reported as the difference between average numbers of spots in wells stimulated with Arginase 1 and wells without added peptide.
CD4+ and CD8+ memory T cells were sorted from freshly thawed healthy donor or cancer patient PBMC samples using magnetic bead sorting kits: Memory CD4+ T Cell Isolation Kit, human (cat. 130-091-893, Miltenyi Biotec) and CD8+ Memory T Cell Isolation Kit, human (cat. 130-094-412, Miltenyi Biotec). The purity of isolated cells was assessed by staining for CD4-FITC, CD8-PerCP, CD45RO-PE (all from BD Biosciences), dead cells were stained using LIVE/DEAD™ Fixable Near-IR Dead Cell Stain Kit (Invitrogen™, ThermoFisher Scientific).
To test that CD4+ and CD8+ memory T cells were sorted from PBMCs of cancer patients and healthy donors that had shown a strong spontaneous immune response ex vivo. […] The purity of memory T cell isolation was confirmed by flow cytometric analysis for CD4+ CD45RO+ and CD8+ CD45RO+ T cells and was determined to be >95%. […] Clear CD8+ memory responses could be detected in 2 healthy donors (see FIG. 4C).

[3] = tested on: PBMCs from healthy donors and cancer patients; test: ex vivo IFNγ ELISPOT of PBMCs without prior peptide stimulation; assay type: cell-based, human; conditions: 4 healthy donors and 2 cancer patients; FIG. 4A
Experimental: as §1
PBMCs from 4 healthy donors and 2 cancer patients (1 breast cancer and 1 malignant melanoma) that had shown strong responses in in vitro ELISPOT were directly tested for responses to ArgLong2 peptide in ex vivo IFNγ ELISPOT.

## ISAKDIVYIGLRDVDPGEHYILKTLGIKYFSMTEVDRL (Peptide fragment of human Arginase 1 (ArgLong2)) [38-mer, positions 169-206 of full length human Arginase 1]
[1]
  immunogenicity in mice (vaccine-specific T cell responses, IFNγ ELISPOT): strongly immunogenic
[2]; sorted CD4+ CD45RO+ T cells from 2 cancer patients, FIG. 4B
  cancer patients with CD4+ memory responses: 2 cancer patients
[2]; sorted CD4+ CD45RO+ T cells from 4 healthy donors, FIG. 4B
  healthy donors with CD4+ memory responses: 3 healthy donors
[2]; sorted CD8+ CD45RO+ T cells, FIG. 4C
  healthy donors with clear CD8+ memory responses: 2 healthy donors
[3]
  spontaneous responses in ex vivo IFNγ ELISPOT: significant spontaneous responses in all 6 donors
